According to patent US12453709B2, “Compositions and methods for treating autism” (priority 2013, dated 2025):

How the values were obtained:
[1] = system: male patients diagnosed with autism; assay: Study HT 02-121: Social Responsiveness Scale (SRS-2); assay type: in vivo, human; settings: for SRS-2 Total T-Score: patients changing category of severity: placebo 2; for SRS-2 DSM-5 Social, Communication and Interaction T-score: patients with changes in severity categorization / SRS-2 Social Communication T-score: patients with categorical improvement / SRS-2 Social Motivation T-score: patients with categorical changes in clinical severity: placebo 3
Description: (§1) This clinical study was a randomized double-blind, placebo-controlled two-cohort, 4-week dose-escalation study that incorporated two open-label treatment groups to assess the safety and efficacy of L1-79 100 mg and 200 mg TID in male patients between the ages of […] years of age diagnosed with autism. The first cohort of 20 patients was comprised of three groups of patients: The first group of five patients received open-label L1-79 100 mg TID and underwent PK and EKG assessments. The remaining two groups in this cohort consisted of 15 patients randomized on a 2:1 basis to receive L1-79 100 mg TID or placebo. The PK and safety data from the open-label L1-79 100 mg TID group was submitted to FDA for review and acceptance before the second cohort was enrolled. The second cohort was procedurally identical to the first. The second cohort of 20 patients was comprised of the same three groups of patients but a dose of 200 mg TID was used instead of 100 mg TID. The key inclusion criteria were as follows: (1) males between 13 and 21 years of age, (2) DSM-5 compliant diagnosis of autism spectrum disorder, confirmed by the Autistic Diagnosis Interview Review (ADIR), and by an ADOS-2 score consistent with a diagnosis of autism, (3) must have been stable on no more than one concomitant medication and no planned changes in psychosocial interventions during the study.
(§2) The primary efficacy endpoint was the determination of the clinical improvement by the investigator as documented by the Clinical Global Impression (CGI) rating scales. Additional efficacy endpoints included: (1) changes from baseline in the Socialization and Communication Domains of the Vineland Adaptive Behavior Scales, Second Edition (VABS II) parent/caregiver rating form, (2) changes from baseline in the ADOS-2 Total Score and subscores, (3) changes in the Social Responsiveness Scale, Second Edition (SRS-2) Total Score and subscales, (4) changes in the ABC-C domains, (5) changes in the Repetitive Behavior Scale-Revised (RBS-R) Total Score and subscales. Given the exploratory design of this study only descriptive statistics were planned.
(§3) In the preliminary study, all forms were completed at the study site in the presence of the investigator. In Cohort 1 of the present study, the VABS-II, SRS-2, ABC-C and RBS-R were filled out at home by the patient/patient's families prior to treatment visits and returned at treatment visits in order to expedite the execution of the study.
This definition is consistent with accepted standards for judging mid and long term outcomes for experimental treatments studied in nearly every disorder, including autism. […] In ASD, children often go through periods of mild to moderate improvement or worsening in their behavioral, social and emotional symptom regulation related to a variety of identifiable and as yet unidentified factors (Boso, 2010; Jyonouchi, 2011). Thus, in a study of short duration, a ‘baseline’ measure may in fact be at the apex, midpoint or nadir of one of these oscillations.
The Social Communication and Interaction scale are comprised of the DSM-5 criteria that make up the social communication and social interaction deficits required for the diagnosis of ASD.

[2] = system: male patients diagnosed with autism; assay: Study HT 02-121: Aberrant Behavior Checklist-Community (ABC-C); assay type: in vivo, human; settings: for ABC-C Hyperactivity and Noncompliance Mean Change from Baseline / ABC-C Hyperactivity and Noncompliance Treatment effect versus placebo / ABC-C Hyperactivity and Noncompliance change, median / ABC-C Inappropriate Speech Mean Change from Baseline / ABC-C Inappropriate Speech Treatment effect versus placebo / ABC-C Inappropriate Speech change, median / ABC-C Irritability and Agitation Mean Change from Baseline / ABC-C Irritability and Agitation Treatment effect versus placebo / ABC-C Irritability and Agitation change, median / ABC-C Lethargy and Social Withdrawal Mean Change from Baseline / ABC-C Lethargy and Social Withdrawal Treatment effect versus placebo / ABC-C Lethargy and Social Withdrawal change, median / ABC-C Stereotypic Behavior Mean Change from Baseline / ABC-C Stereotypic Behavior Treatment effect versus placebo / ABC-C Stereotypic Behavior change, median: Week 4/LOCF
Description: as §1, §2
as §3, with “study. […]” for “study.”

## CC(N)(Cc1ccc(O)cc1)C(=O)O (racemic) [L1-79, α-methyl-DL-tyrosine]
[1]; 100 mg group
  SRS-2 Total T-Score: patients changing category of severity: 2 patients
  SRS-2 DSM-5 Social, Communication and Interaction T-score: patients with changes in severity categorization: 2 patients
  SRS-2 Social Communication T-score: patients with categorical improvement: 3 patients
  SRS-2 Social Motivation T-score: patients with categorical changes in clinical severity: 4 patients
[1]; 200 mg group
  SRS-2 Total T-Score: patients changing category of severity: 3 patients
  SRS-2 DSM-5 Social, Communication and Interaction T-score: patients with changes in severity categorization: 4 patients
  SRS-2 Social Communication T-score: patients with categorical improvement: 4 patients
  SRS-2 Social Motivation T-score: patients with categorical changes in clinical severity: 6 patients
[1]; DB 100 mg TID, Week 4/LOCF
  SRS-2 DSM-5 Restricted and Repetitive Behavior T-score Mean Change from Baseline: −0.4
  SRS-2 DSM-5 Restricted and Repetitive Behavior T-score Treatment effect versus placebo: 7.2
  SRS-2 DSM-5 Restricted and Repetitive Behavior T-score change, median: −3, 0, 5
  SRS-2 DSM-5 Social, Communication and Interaction T-score Mean Change from Baseline: 0.6
  SRS-2 DSM-5 Social, Communication and Interaction T-score Treatment effect versus placebo: 4.8
  SRS-2 DSM-5 Social, Communication and Interaction T-score change, median: −3, 2, 5
  SRS-2 Social Communication T-score Mean Change from Baseline: 1.1
  SRS-2 Social Communication T-score Treatment effect versus placebo: 6.0
  SRS-2 Social Communication T-score change, median: −5, 0, 6
  SRS-2 Social-Motivation T-score Mean Change from Baseline: −1.4
  SRS-2 Social-Motivation T-score Treatment effect versus placebo: 0.3
  SRS-2 Social-Motivation T-score change, median: −7, −4, 8
  SRS-2 Total T-score Mean Change from Baseline: −0.4
  SRS-2 Total T-score Treatment effect versus placebo: 4.8
  SRS-2 Total T-score change, median: −3, −1, 3
[1]; DB 200 mg TID, Week 4/LOCF
  SRS-2 DSM-5 Restricted and Repetitive Behavior T-score Mean Change from Baseline: −7.6
  SRS-2 DSM-5 Restricted and Repetitive Behavior T-score Treatment effect versus placebo: −0.0
  SRS-2 DSM-5 Restricted and Repetitive Behavior T-score change, median: −22, −3, 3
  SRS-2 DSM-5 Social, Communication and Interaction T-score Mean Change from Baseline: −7.6
  SRS-2 DSM-5 Social, Communication and Interaction T-score Treatment effect versus placebo: −3.4
  SRS-2 DSM-5 Social, Communication and Interaction T-score change, median: −18, −3, 0
  SRS-2 Social Communication T-score Mean Change from Baseline: −8.3
  SRS-2 Social Communication T-score Treatment effect versus placebo: −3.4
  SRS-2 Social Communication T-score change, median: −16, −4, −1
  SRS-2 Social-Motivation T-score Mean Change from Baseline: −10.6
  SRS-2 Social-Motivation T-score Treatment effect versus placebo: −8.9
  SRS-2 Social-Motivation T-score change, median: −21, −6, 0
  SRS-2 Total T-score Mean Change from Baseline: −7.7
  SRS-2 Total T-score Treatment effect versus placebo: −2.5
  SRS-2 Total T-score change, median: −19, 3, 0
[1]; L1-79 200 mg treated group
  average improvement of SRS-2 Total, DSM-5 Social Communication and Interaction, Social Communication and Social Motivation T-scores: ~8 points
[1]; L1-79 200 mg, Week 4/LOCF
  SRS-2 T-scores: magnitude and number/percent of responders compared to placebo: greater
[2]; 200 mg group
  ABC-C Lethargy and Social Withdrawal / Inappropriate Speech: responder analyses vs placebo: greater tendency for patients to respond with improvement or no worsening
[2]; DB 100 mg TID
  ABC-C Hyperactivity and Noncompliance Mean Change from Baseline: 0.4
  ABC-C Hyperactivity and Noncompliance Treatment effect versus placebo: 4.9
  ABC-C Hyperactivity and Noncompliance change, median: 0, 0, 3
  ABC-C Inappropriate Speech Mean Change from Baseline: 0.0
  ABC-C Inappropriate Speech Treatment effect versus placebo: 1.6
  ABC-C Inappropriate Speech change, median: −2, 0, 1
  ABC-C Irritability and Agitation Mean Change from Baseline: −0.9
  ABC-C Irritability and Agitation Treatment effect versus placebo: 2.5
  ABC-C Irritability and Agitation change, median: −2, −1, 0
  ABC-C Lethargy and Social Withdrawal Mean Change from Baseline: −1.6
  ABC-C Lethargy and Social Withdrawal Treatment effect versus placebo: 3.9
  ABC-C Lethargy and Social Withdrawal change, median: −2, −1, 1
  ABC-C Stereotypic Behavior Mean Change from Baseline: 1.9
  ABC-C Stereotypic Behavior Treatment effect versus placebo: 2.5
  ABC-C Stereotypic Behavior change, median: 0, 0, 4
[2]; DB 200 mg TID
  ABC-C Hyperactivity and Noncompliance Mean Change from Baseline: −4.0
  ABC-C Hyperactivity and Noncompliance Treatment effect versus placebo: 0.5
  ABC-C Hyperactivity and Noncompliance change, median: −7, −1, 0
  ABC-C Inappropriate Speech Mean Change from Baseline: −2.0
  ABC-C Inappropriate Speech Treatment effect versus placebo: −0.4
  ABC-C Inappropriate Speech change, median: −4, −1, 0
  ABC-C Irritability and Agitation Mean Change from Baseline: −2.2
  ABC-C Irritability and Agitation Treatment effect versus placebo: 1.2
  ABC-C Irritability and Agitation change, median: −7, −2, 0
  ABC-C Lethargy and Social Withdrawal Mean Change from Baseline: −4.5
  ABC-C Lethargy and Social Withdrawal Treatment effect versus placebo: 1.0
  ABC-C Lethargy and Social Withdrawal change, median: −9, −2, 0
  ABC-C Stereotypic Behavior Mean Change from Baseline: −1.7
  ABC-C Stereotypic Behavior Treatment effect versus placebo: −1.1
  ABC-C Stereotypic Behavior change, median: −3, −1, 0
[2]; L1-79 200 mg
  patients with stability or improvement of ABC-C social and speech domains: 90 to 100%
